pIC50, pKd: −log10 of the molar value.
Experiments:
Ba/F3-kit-T6701 = assay: Cell cycle analysis; assay type: cell-based, murine; details: 1.0 μM, 24 hours of treatment
Experimental: (§1) All cell lines were cultured with 5% CO2 at 37° C. in RPMI (Mediatech, Inc., Herndon, Va.) with 10% fetal calf serum (FCS) and supplemented with 1% L-glutamine. Parental Ba/F3 cells were similarly cultured with 15% WEHI-conditioned medium as a source of IL-3. Transfected cell lines were cultured in media supplemented with 1 mg/ml G418.
(§2) Cell cycle analysis was performed using approximately 500,000 cells, which were centrifuged at 1500 rpm for 5 min, washed in PBS, and the pellet re-suspended in 500 μl of propidium iodide solution (50 μg/ml propidium iodide, 0.1% NP-40, 0.1% sodium citrate). The mixture was stored in the dark at 4° C. for a minimum of 15 min, and then analyzed by flow cytometry. Apoptosis of drug-treated cells was measured using the Annexin-V-Fluos Staining Kit (Boehringer Mannheim, Indianapolis).

Ba/F3-PDGFRα-T674M = assay: Cell cycle analysis; assay type: cell-based, murine; details: 24 hours of treatment
Experimental: as §1, §2

Ba/F3-PDGFRα-T674I = assay: Cell cycle analysis; assay type: cell-based, murine; details: 24 hours of treatment
Experimental: as §1, §2

Ba/F3-TEL/PDGFRβ = assay: Relative IC50 in PDGFR-expressing cell line; assay type: cell-based, murine; details: Mus musculus, 2.5-3 days, read-out: Relative IC50 range
Experimental: (§3) All compounds were initially dissolved in DMSO to make 10 mM stock solutions, and then were serially diluted to obtain final concentrations for in vitro experiments.
(§4) Ba/F3.p210 cells were obtained by transfecting the IL-3-dependent marine hematopoietic Ba/F3 cell line with a pGD vector containing p210BCR-ABL (B2A2) cDNA (Daley and Baltimore, 1988; Sattler et al., 1996; Okuda et al., 1996). Murine hematopoietic 32D cells were transduced with retrovirus to express p210 Bcr-ABL (32D.p210 cells) (Matulonis et al., 1993); the 32D-T315I cell line was transfected by electroporation with the imatinib resistant BCR-ABL construct (pCI-neo Mammalian Expression Vector; Promega (#E1841) harboring the point mutation T315I (Weisberg et al., 2005). Ba/F3 cells were stably transfected by electroporation with imatinib-resistant BCR-ABL constructs (pCI-neo Mammalian Expression Vector; Promega (#E1841) harboring the point mutations T315I, F317L, F486S, and M351T; transfectants were selected for neomycin resistance and IL-3-independent growth (Weisberg et al., 2005). Ba/F3 cells were stably transfected by electroporation with BCR-ABL point mutants identified in a random mutagenesis screen for BCR-ABL point mutants conferring resistance to nilotinib: Q252H, E292K, Y253C, Y253H, E255K, and V289L (Ray et al., 2007). Ba/F3 cells were made to express Tel-PDGFRβ as described by Golub et al., 1994, and Carroll et al., 1996. Constructs of D842V-PDGFRα and V561D-PDGFRα cDNA cloned into pcDNA3.1 were stably transfected into Ba/F3 cells by electroporation, and cells were selected for neomycin resistance and IL3-independent growth as described by Weisberg et al., 2006.
as §1

Ba/F3-PDGFRα-V561D = assay: Relative IC50 in PDGFR-expressing cell line; assay type: cell-based, murine; details: Mus musculus, 48 h, 2 day experiment, read-out: Relative IC50 range
Experimental: as §3, §4, §1

Ba/F3-PDGFRα-D842V = assay: Relative IC50 in PDGFR-expressing cell line; assay type: cell-based, murine; details: Mus musculus, 48 h, 2 day experiment, read-out: Relative IC50 range
Experimental: as §3, §4, §1

Ba/F3-PDGFRβ-T681I = assay: Relative IC50 in PDGFR-expressing cell line; assay type: cell-based, murine; details: Mus musculus, 2.5-3 days, read-out: Relative IC50 range
Experimental: as §3, §1

p38-gamma = p38-gamma (Homo sapiens (Human), UniProt P53778); assay: KINOMEscan competition binding assay
p38-gamma, sequence (P53778 whole entry): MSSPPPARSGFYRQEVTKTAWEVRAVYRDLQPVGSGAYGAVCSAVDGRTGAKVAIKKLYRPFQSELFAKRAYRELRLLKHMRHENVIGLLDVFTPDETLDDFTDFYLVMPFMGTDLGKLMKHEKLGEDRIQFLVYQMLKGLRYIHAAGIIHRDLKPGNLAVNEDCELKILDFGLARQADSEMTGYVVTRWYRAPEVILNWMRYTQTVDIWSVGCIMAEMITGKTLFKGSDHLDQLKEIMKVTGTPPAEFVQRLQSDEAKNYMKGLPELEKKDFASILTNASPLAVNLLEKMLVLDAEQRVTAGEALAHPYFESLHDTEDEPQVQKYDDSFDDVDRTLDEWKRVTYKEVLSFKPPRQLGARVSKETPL
Experimental: (§5) KINOMEscan™ (Ambit Biosciences, San Diego, Calif.), a high-throughput method for screening small molecular agents against a large panel of human kinases, was utilized for compound 2.
(§6) Kinases where significant binding affinity was detected at 10 μM were retested in dose-response format to determine a dissociation constant. The size of the red circle is proportion to Kd. […] The compound binds in the “DFG-out” conformation as evident by the position of F405. Ample space is available adjacent to the gatekeeper residue T338 providing a rationale for the tolerance for a larger amino acid at this position.

TIE2 = TIE2 (Homo sapiens (Human), UniProt Q02763); assay: KINOMEscan competition binding assay
TIE2, sequence (Q02763 23-1124): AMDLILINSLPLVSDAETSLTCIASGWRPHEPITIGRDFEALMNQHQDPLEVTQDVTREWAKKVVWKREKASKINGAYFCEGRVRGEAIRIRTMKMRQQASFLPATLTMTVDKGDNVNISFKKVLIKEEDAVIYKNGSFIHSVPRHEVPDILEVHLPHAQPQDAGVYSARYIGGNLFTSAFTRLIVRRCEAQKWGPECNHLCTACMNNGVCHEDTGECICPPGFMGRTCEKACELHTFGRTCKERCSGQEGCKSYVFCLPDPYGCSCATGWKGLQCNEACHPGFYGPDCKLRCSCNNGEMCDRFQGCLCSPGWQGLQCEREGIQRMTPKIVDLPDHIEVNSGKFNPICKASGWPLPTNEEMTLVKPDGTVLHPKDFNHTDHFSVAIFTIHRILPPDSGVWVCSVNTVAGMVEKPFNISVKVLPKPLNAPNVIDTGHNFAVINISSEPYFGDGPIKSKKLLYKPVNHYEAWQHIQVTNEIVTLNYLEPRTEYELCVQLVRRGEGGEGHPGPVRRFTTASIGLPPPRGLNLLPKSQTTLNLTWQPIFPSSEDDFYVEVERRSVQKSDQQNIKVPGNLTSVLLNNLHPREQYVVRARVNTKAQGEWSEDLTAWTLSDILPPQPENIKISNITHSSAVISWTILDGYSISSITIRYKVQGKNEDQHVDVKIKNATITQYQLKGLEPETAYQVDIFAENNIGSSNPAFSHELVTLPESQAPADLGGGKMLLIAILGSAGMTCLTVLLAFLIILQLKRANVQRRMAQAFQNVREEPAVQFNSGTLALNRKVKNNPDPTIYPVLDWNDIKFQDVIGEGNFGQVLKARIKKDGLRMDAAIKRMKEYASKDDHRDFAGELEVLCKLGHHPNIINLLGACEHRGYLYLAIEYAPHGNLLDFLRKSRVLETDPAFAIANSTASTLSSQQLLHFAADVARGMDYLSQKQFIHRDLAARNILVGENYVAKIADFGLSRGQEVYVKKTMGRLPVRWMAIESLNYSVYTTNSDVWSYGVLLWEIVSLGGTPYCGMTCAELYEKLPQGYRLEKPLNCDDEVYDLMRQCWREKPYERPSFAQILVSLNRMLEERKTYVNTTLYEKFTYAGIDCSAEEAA
Experimental: as §5, §6

FLT1 = FLT1 (Homo sapiens (Human), UniProt P17948); assay: KINOMEscan competition binding assay
Experimental: as §5, §6

VEGFR2 = VEGFR2 (Homo sapiens (Human), UniProt P35968); assay: KINOMEscan competition binding assay
Experimental: as §5, §6

BRAF = BRAF (Homo sapiens (Human), UniProt P15056); assay: KINOMEscan competition binding assay
BRAF, sequence (P15056 whole entry): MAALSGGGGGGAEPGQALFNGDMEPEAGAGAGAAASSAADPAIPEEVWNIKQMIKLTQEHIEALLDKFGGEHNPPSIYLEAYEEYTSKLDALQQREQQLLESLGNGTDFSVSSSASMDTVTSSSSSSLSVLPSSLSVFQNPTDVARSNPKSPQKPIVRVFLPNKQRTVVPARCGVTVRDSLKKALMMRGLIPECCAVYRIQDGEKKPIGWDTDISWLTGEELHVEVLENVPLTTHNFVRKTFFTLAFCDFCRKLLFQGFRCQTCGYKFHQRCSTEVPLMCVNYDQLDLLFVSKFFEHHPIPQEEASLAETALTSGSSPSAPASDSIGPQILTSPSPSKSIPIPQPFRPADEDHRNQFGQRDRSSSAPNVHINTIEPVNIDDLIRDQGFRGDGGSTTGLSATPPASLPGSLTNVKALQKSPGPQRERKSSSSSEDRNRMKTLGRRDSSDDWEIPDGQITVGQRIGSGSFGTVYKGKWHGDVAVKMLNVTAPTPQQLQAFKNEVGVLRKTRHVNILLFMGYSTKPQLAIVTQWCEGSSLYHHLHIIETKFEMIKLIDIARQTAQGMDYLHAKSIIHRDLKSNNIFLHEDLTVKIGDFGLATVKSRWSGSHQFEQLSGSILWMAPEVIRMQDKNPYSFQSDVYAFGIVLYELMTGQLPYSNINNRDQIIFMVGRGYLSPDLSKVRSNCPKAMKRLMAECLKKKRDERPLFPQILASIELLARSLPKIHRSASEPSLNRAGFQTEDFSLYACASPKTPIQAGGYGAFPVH
Experimental: as §5, §6

LOK = LOK (Homo sapiens (Human), UniProt O94804); assay: KINOMEscan competition binding assay
Experimental: as §5, §6

CDK7 = CDK7 (Homo sapiens (Human), UniProt P50613); assay: KINOMEscan competition binding assay
CDK7, sequence (P50613 whole entry): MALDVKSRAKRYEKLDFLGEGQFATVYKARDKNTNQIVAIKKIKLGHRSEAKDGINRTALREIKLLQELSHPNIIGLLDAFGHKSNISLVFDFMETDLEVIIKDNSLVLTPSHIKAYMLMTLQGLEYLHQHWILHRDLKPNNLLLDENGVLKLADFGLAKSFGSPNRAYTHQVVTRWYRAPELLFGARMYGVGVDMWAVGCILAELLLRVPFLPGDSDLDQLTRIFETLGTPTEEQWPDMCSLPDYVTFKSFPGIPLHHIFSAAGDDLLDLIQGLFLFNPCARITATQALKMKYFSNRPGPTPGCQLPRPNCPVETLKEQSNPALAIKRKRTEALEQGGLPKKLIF
Experimental: as §5, §6

CDK2 = CDK2 (Homo sapiens (Human), UniProt P24941); assay: KINOMEscan competition binding assay
Experimental: as §5, §6

DDR1 = DDR1 (Homo sapiens (Human), UniProt Q08345); assay: KINOMEscan competition binding assay
Experimental: as §5, §6

PDGFRA = PDGFRA (Homo sapiens (Human), UniProt P16234); assay: KINOMEscan competition binding assay
PDGFRA, sequence (P16234 24-1089): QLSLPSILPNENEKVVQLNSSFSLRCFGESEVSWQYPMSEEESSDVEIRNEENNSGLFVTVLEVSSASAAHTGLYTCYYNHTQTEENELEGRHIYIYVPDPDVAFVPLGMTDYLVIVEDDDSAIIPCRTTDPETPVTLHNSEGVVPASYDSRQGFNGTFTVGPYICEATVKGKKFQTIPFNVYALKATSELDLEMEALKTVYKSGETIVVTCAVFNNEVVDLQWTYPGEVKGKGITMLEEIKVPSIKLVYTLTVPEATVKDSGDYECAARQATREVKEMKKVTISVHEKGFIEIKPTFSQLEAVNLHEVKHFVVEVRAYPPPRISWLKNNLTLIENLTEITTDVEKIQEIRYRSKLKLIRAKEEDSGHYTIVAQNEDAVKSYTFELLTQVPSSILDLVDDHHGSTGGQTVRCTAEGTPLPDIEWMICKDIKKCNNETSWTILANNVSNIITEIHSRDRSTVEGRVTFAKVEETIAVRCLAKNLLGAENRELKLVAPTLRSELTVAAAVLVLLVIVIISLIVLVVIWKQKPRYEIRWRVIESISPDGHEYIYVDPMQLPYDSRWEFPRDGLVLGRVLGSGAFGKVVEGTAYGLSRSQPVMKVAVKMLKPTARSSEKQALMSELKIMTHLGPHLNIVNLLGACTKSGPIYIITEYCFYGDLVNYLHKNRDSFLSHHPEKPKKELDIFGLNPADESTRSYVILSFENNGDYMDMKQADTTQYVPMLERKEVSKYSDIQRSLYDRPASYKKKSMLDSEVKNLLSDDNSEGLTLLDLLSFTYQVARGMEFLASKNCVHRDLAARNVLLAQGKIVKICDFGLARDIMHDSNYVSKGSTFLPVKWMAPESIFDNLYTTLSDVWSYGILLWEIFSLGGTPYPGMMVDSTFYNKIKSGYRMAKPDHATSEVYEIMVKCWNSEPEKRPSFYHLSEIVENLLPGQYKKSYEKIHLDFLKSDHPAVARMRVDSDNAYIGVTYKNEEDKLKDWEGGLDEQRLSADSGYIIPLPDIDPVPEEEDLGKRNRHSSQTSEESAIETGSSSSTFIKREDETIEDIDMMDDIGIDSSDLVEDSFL
Experimental: as §5, §6

HIPK1 = HIPK1 (Homo sapiens (Human), UniProt Q86Z02); assay: KINOMEscan competition binding assay
HIPK1, sequence (Q86Z02 whole entry): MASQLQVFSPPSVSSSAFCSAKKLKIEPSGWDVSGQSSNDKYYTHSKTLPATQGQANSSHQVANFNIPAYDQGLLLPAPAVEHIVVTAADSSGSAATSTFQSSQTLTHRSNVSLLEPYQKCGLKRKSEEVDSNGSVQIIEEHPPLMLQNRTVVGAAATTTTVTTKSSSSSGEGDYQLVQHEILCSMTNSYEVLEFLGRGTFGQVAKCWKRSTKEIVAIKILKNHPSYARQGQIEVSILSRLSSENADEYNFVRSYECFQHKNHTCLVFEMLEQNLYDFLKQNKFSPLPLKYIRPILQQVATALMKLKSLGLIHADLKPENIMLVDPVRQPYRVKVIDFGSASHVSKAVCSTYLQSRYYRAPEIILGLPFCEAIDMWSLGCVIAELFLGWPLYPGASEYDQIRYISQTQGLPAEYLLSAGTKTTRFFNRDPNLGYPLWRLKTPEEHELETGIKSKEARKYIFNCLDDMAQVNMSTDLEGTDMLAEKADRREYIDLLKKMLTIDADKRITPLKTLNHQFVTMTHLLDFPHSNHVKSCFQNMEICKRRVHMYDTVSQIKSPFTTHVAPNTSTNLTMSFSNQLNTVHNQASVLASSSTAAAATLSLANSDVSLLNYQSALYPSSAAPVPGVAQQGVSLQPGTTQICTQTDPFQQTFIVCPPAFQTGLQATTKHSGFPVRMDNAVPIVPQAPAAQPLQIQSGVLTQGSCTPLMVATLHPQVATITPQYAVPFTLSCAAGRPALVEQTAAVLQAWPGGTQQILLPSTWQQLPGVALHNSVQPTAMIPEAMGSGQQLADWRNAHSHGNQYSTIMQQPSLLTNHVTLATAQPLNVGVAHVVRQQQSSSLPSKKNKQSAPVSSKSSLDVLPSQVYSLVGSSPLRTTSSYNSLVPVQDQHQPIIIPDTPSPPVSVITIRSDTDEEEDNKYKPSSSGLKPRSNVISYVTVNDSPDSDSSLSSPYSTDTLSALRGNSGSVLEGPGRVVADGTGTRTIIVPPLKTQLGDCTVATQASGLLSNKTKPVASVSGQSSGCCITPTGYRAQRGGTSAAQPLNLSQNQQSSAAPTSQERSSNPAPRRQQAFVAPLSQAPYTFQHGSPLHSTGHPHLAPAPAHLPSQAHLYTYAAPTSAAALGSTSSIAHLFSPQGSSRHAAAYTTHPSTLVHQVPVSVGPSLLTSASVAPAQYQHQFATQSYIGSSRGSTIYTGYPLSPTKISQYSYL
Experimental: as §5, §6

ABL1 = ABL1 (Homo sapiens (Human), UniProt P00519); assay: KINOMEscan competition binding assay
Experimental: as §5, §6

RET = RET (Homo sapiens (Human), UniProt P07949); assay: KINOMEscan competition binding assay
Experimental: as §5, §6

ABL1(T315I) = ABL1(T315I) (Homo sapiens (Human), UniProt P00519, T315I); assay: KINOMEscan competition binding assay
Experimental: as §5, §6

CDK3 = CDK3 (Homo sapiens (Human), UniProt Q00526); assay: KINOMEscan competition binding assay
Experimental: as §5, §6

FLT4 = FLT4 (Homo sapiens (Human), UniProt P35916); assay: KINOMEscan competition binding assay
Experimental: as §5, §6

PDGFRB = PDGFRB (Homo sapiens (Human), UniProt P09619); assay: KINOMEscan competition binding assay
Experimental: as §5, §6

KIT = KIT (Homo sapiens (Human), UniProt P10721); assay: KINOMEscan competition binding assay
Experimental: as §5, §6

CDK5 = CDK5 (Homo sapiens (Human), UniProt Q00535); assay: KINOMEscan competition binding assay
Experimental: as §5, §6

FLT3 = FLT3 (Homo sapiens (Human), UniProt P36888); assay: KINOMEscan competition binding assay
Experimental: as §5, §6

32D-BCR-Abl = assay: Cell cycle analysis; assay type: cell-based, murine; details: 24 hours of treatment
Text: as §4, §1, §2

32D-BCR-Abl-T3151 = assay: Cell cycle analysis; assay type: cell-based, murine; details: 24 hours of treatment
Text: as §4, §1, §2

pIC50 (Ba/F3-TEL/PDGFRβ): > 7.00 | pIC50 (Ba/F3-PDGFRα-V561D): < 6.00 | pIC50 (Ba/F3-PDGFRα-D842V): 6.00 | pIC50 (Ba/F3-PDGFRβ-T681I): < 6.00 | pKd (p38-gamma): 7.00 | pKd (TIE2): 7.24 | pKd (FLT1): 7.13 | pKd (VEGFR2): 7.24 | pKd (BRAF): 7.44 | pKd (LOK): 8.02 | pKd (CDK7): 7.89 | pKd (CDK2): 6.08 | pKd (DDR1): 8.47 | pKd (PDGFRA): 8.11 | pKd (HIPK1): 7.47 | pKd (ABL1): 8.48 | pKd (RET): 8.25 | pKd (ABL1(T315I)): 8.92 | pKd (CDK3): 6.60 | pKd (FLT4): 7.51 | pKd (PDGFRB): 8.74 | pKd (KIT): 8.54 | pKd (CDK5): 6.82 | pKd (FLT3): 8.64
SMILES: CCN1CCN(Cc2ccc(NC(=O)c3cccc(-c4ccc5nc(NC(=O)C6CC6)sc5n4)c3)cc2C(F)(F)F)CC1 [Compound 2]
% G2M (Ba/F3-kit-T6701): 10.05% | % S (Ba/F3-kit-T6701): 37.38% | % G0G1 (Ba/F3-PDGFRα-T674M; 0.01 μM): 40.81% | % G2M (Ba/F3-PDGFRα-T674M; 0.01 μM): 7.41% | % S (Ba/F3-PDGFRα-T674M; 0.01 μM): 51.78% | % G0G1 (Ba/F3-PDGFRα-T674M; 0.1 μM): 72.37% | % G2M (Ba/F3-PDGFRα-T674M; 0.1 μM): 3.62% | % S (Ba/F3-PDGFRα-T674M; 0.1 μM): 24.01% | % G0G1 (Ba/F3-PDGFRα-T674M; 1.0 μM): 79.92% | % G2M (Ba/F3-PDGFRα-T674M; 1.0 μM): 2.46% | % S (Ba/F3-PDGFRα-T674M; 1.0 μM): 17.61% | % G0G1 (Ba/F3-PDGFRα-T674I; 0.01 μM): 57.30% | % G2M (Ba/F3-PDGFRα-T674I; 0.01 μM): 5.98% | % S (Ba/F3-PDGFRα-T674I; 0.01 μM): 36.72% | % G0G1 (Ba/F3-PDGFRα-T674I; 0.1 μM): 64.90% | % G2M (Ba/F3-PDGFRα-T674I; 0.1 μM): 5.82% | % S (Ba/F3-PDGFRα-T674I; 0.1 μM): 29.28% | % G0G1 (Ba/F3-PDGFRα-T674I; 1.0 μM): 77.55% | % G2M (Ba/F3-PDGFRα-T674I; 1.0 μM): 7.16% | % S (Ba/F3-PDGFRα-T674I; 1.0 μM): 15.29% | % G0G1 (32D-BCR-Abl; 0.01 μM): 42.62% | % G2M (32D-BCR-Abl; 0.01 μM): 9.56% | % S (32D-BCR-Abl; 0.01 μM): 47.82% | % G0G1 (32D-BCR-Abl; 0.1 μM): 76.52% | % G2M (32D-BCR-Abl; 0.1 μM): 3.78% | % S (32D-BCR-Abl; 0.1 μM): 19.71% | % G0G1 (32D-BCR-Abl; 1.0 μM): 77.44% | % G2M (32D-BCR-Abl; 1.0 μM): 9.07% | % S (32D-BCR-Abl; 1.0 μM): 13.49% | % G0G1 (32D-BCR-Abl-T3151; 0.01 μM): 36.96% | % G2M (32D-BCR-Abl-T3151; 0.01 μM): 22.64% | % S (32D-BCR-Abl-T3151; 0.01 μM): 40.40% | % G0G1 (32D-BCR-Abl-T3151; 0.1 μM): 46.35% | % G2M (32D-BCR-Abl-T3151; 0.1 μM): 10.54% | % S (32D-BCR-Abl-T3151; 0.1 μM): 43.11% | % G0G1 (32D-BCR-Abl-T3151; 1.0 μM): 73.13% | % G2M (32D-BCR-Abl-T3151; 1.0 μM): 9.29% | % S (32D-BCR-Abl-T3151; 1.0 μM): 17.59%

— patent US8765747B2, “Fused 2-aminothiazole compounds” (Dana-Farber Cancer Institute, Inc., priority 2009, dated 2014)
